A short description of assay [1]: caspase-Glo signal rise in Trichostatin-treated MEWO cells – cell-based, Trichostatin A primed, luminescence, set 2, orthogonal assay for A1 inhibitor project, dose response (AID 504356). The conditions noted are these: MEWO A1-expressing, TSA primed, caspase-Glo luminescence, 3 h, active compounds read high.
The subject of assay [2] is MEWO A1-expressing, TSA primed, caspase-Glo luminescence, 3 h. Described as above.

This passage reports max caspase activation and AC10 results from PubChem BioAssay AID504356 (Broad Institute, 2011).

The source made the active and inactive calls.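 The calls were made as follows: active = curve reaching 10% of positive control caspase signal at or below the top valid tested dose; inactive = opposite-direction activity, or no crossing across tested range.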 A value given as a limit tells only on which side of the number the result lay.

Take `CCOCCCNc1c([N+](=O)[O-])c(=O)n(C)c2ccccc12`: the max caspase activation in assay [1] (at 8 µM) is 1.97% (inactive).
In the case of `O=c1oc2ccccc2c(Sc2ccccc2)c1[N+](=O)[O-]`, in assay [1] (at 30 µM), the max caspase activation was -5.41% (inactive).
For `Cn1c(=O)c([N+](=O)[O-])c(Cl)c2ccccc21`, the max caspase activation in assay [1] (at 8 µM) was 9.18% (inactive).
`Cn1c(=O)c([N+](=O)[O-])c(-n2cnc3ccccc32)c2ccccc21`: in assay [2], the AC10 is > 30 µM (inactive).
With `CCOC(=O)N1CCN(c2c([N+](=O)[O-])c(=O)n(C)c3ccccc23)CC1`, the max caspase activation in assay [1] (at 8 µM) is 0.764% (inactive).
Consider `Cc1ccc(Sc2c([N+](=O)[O-])c(=O)n(C)c3ccccc23)cc1`, for which the AC10 in assay [2] was > 30 µM (inactive).
In the case of `Cc1ccc(Nc2c([N+](=O)[O-])c(=O)n(C)c3ccccc23)cc1`, the max caspase activation in assay [1] (at 0.5 µM) was 1.48% (inactive).
For `O=c1oc2ccccc2c(Cl)c1[N+](=O)[O-]`, in assay [1] (at 30 µM), the max caspase activation was -5.13% (inactive).
Consider `Cc1ccc(Sc2c([N+](=O)[O-])c(=O)oc3ccccc23)cc1`, for which, in assay [1] (at 16 µM), the max caspase activation was -4.17% (inactive).
As for `O=c1oc2ccccc2c(Nc2cc(Cl)cc(Cl)c2)c1[N+](=O)[O-]`, in assay [1] (at 0.12 µM), the max caspase activation is 2.71% (inactive).
As for `O=C(Oc1cccc(/C=N/Nc2nc(Nc3ccccc3)nc(N3CCOCC3)n2)c1)c1ccco1`, the max caspase activation in assay [1] (at 3.8 µM) is 2.46% (inactive).
Take `CCSc1c([N+](=O)[O-])c(=O)oc2ccccc12`: the max caspase activation in assay [1] (at 8 µM) is 2.46% (inactive).
Regarding `Cc1ccc(Nc2c([N+](=O)[O-])c(=O)oc3ccccc23)cc1`, the max caspase activation in assay [1] (at 16 µM) was 1.85% (inactive).
On to `Cc1ccc(Sc2cc(=O)n(C)c3ccccc23)cc1`, for which the max caspase activation in assay [1] (at 30 µM) was -5.85% (inactive).
In the case of `O=[N+]([O-])c1cnc2ccccc2c1Sc1ccccc1`, in assay [2], the AC10 is > 30 µM (inactive).
Turning to `C/C1=C/C(=O)O[C@@H]2C[C@@H](CC[C@H](C)/C=C\CC1)O[C@@](O)(C1CSC(=O)N1)C2` (stereo partly specified), the max caspase activation in assay [1] (at 30 µM) is 2.64% (inactive).
As for `Cn1c(=O)c([N+](=O)[O-])c(Nc2ccc(Cl)cc2)c2ccccc21`, the max caspase activation in assay [1] (at 0.235 µM) is 3.04% (inactive).
Regarding `O=c1oc2ccccc2c(N2CCCCC2)c1[N+](=O)[O-]`, the max caspase activation in assay [1] (at 0.235 µM) was -1.97% (inactive).
As for `Cn1c(=O)c([N+](=O)[O-])c(Oc2ccccc2)c2ccccc21`, in assay [1] (at 30 µM), the max caspase activation was 2.08% (inactive).
Regarding `CN1C(=O)C(C)(C)N(Cc2ccccc2)c2ccccc21`, the max caspase activation in assay [1] (at 16 µM) was -0.643% (inactive).
`Cc1ccc(Sc2c([N+](=O)[O-])cnc3ccccc23)cc1`: the AC10 in assay [2] was 24.9 µM.
